Data on 10 compounds can be found in patent publication EP4559922A1, “ANTIHISTAMINE COMPOUND, PREPARATION METHOD THEREFOR AND USE THEREOF” (HC Synthetic Pharmaceutical Co., Ltd., priority 2022, dated 2024).

The test system of one series is histamine. The experiment in a line: Antagonism of histamine-induced contraction of isolated ileal smooth muscle of guinea pigs. To be noted: x±s, n = 8; for Smooth muscle tone After administration: 3 minutes after adding 0.05 mL compound following histamine; for Smooth muscle tone After addition of histamine: after 0.05 mL histamine, before compound; for Smooth muscle tone Before administration: baseline before histamine. As for the experimental part:
(§1) The guinea pig was knocked unconscious with a wooden stick, and the abdomen was immediately dissected to separate the ileum about 15 cm in length. The contents of the intestinal segment were flushed with Tyrode's solution and placed in Tyrode's solution at a constant temperature of 37°C for later use, and oxygen was supplied simultaneously. The experimental intestinal tract (1 cm in length) was cut and placed into 20 ml of Tyrode's solution at a constant temperature of 37°C with a continuous oxygen supply. One end of the intestine was fixed on the ventilation hook and the other end was connected to the muscle tone transducer and led to the computer interface. The muscle tone value of the ileal smooth muscle was recorded with a BL system. The experiment was carried out after the intestinal segment contraction became stable.
(§2) After the ileal peristalsis curve stabilized, the tone values before adding the compound were recorded, and then 0.05 mL of histamine was added. […] The operation was repeated 8 times. The antispasmodic percentage was calculated using the following equation. Antispasmodic percentage =; (Tone value after adding histamine−Tone value after adding subject compound)/(Tone value after adding histamine) × 100% [formula]

Test in series [1]: as above
The note with it: relative to tone after adding histamine; x±s, n = 8; 3 min. As for the experimental part: as §1, §2

Series [2] is described as follows: Solubility of the compounds in water, methanol and isopropanol. In kind it is physicochemical. The note with it: for Solubility in Isopropanol: solvent isopropanol; for Solubility in Methanol: solvent methanol; for Solubility in Water: solvent water.
Description: The solubility in water, methanol, and isopropanol of the compounds of the present disclosure and the comparative compounds were measured separately.
Series [3] relates to isolated ileal smooth muscle of guinea pigs. As to the kind of experiment: Effect on muscle tone of isolated ileal smooth muscle of guinea pigs (no histamine added). The note with it: X±s; for Smooth muscle tone After administration: 5 minutes after adding drug; for Smooth muscle tone After administration / Smooth muscle tone Before administration: n = 8; for Antispasmodic percentage: relative to tone before adding compound, n = 8, 5 min; for Smooth muscle tone Before administration: baseline. As for the experimental part: as §1
After the ileum contraction curve stabilized, the tone values before adding the drug were recorded, then the drug or DMSO was added, and the average tone value of the ileum contraction curve at that point was recorded 5 minutes later. The operation was repeated 8 times. The antispasmodic percentage was calculated according to the following formula. Antispasmodic percentage =; (Tone value before adding subject compound−Tone value after adding subject compound)/(Tone value before adding subject compound); × 100% [formula]

Series [4] has as its system histamine-induced asthma in guinea pigs. As to the kind of experiment: Antiasthmatic effect on histamine-induced asthma in guinea pigs (latency period). In kind it is in vivo. The note with it: X±s, n = 5; for Post-administration latency period: 1 mg/kg oral gavage, sixty minutes after administration, histamine hydrochloride spray, capped at 8 minutes; for Pre-administration latency period: baseline before administration, histamine hydrochloride 0.8 mg/mL sprayed 40 seconds. As for the experimental part: The guinea pigs were placed in a polymethyl methacrylate bell jar and a histamine hydrochloride solution was sprayed ultrasonically (0.8 mg/mL) for 40 seconds. The time point at which the guinea pigs developed asthma was recorded. The time of convulsion and fall was taken as the latency period. Guinea pigs with a latency period exceeding 180 seconds were not selected. […] The guinea pigs were administered by oral gavage at a dose of 2 mL/kg·bw. Sixty minutes after the administration, the guinea pigs were placed in bell jars, and histamine hydrochloride solution was sprayed under the same conditions as in the previous selection. The latency period for the onset of asthma was recorded. […] The results were processed statistically.

Series [5] can be described thus: Accelerated stability test. The class given is physicochemical. To be noted: 40°C ± 2°C, relative humidity 75% ± 5%.

Values after ≈ are worked out from the molar mass of the structure shown.

Regarding `OCCCN1CCC(=C2c3ccc(Cl)cc3CCc3cccnc32)CC1` [Hydroxypropyl desloratadine, reference compound], the “Smooth muscle tone After administration” value in the series with histamine is 1.46 ± 0.49 g. Moreover, in series [1], the Antispasmodic percentage stood at 57.05±12.07%. For the same compound, in series [2], the “Solubility in Isopropanol” value worked out at 26 mg/mL (≈ 70.5 mM), the “Solubility in Methanol” value is 24 mg/mL (≈ 65.1 mM) and the “Solubility in Water” value is given as “Practically insoluble”. In addition, in series [3], the “Smooth muscle tone After administration” value was found to be 1.30 ± 0.24 g and the Antispasmodic percentage stood at 23.97±11.12%. In series [4], this compound yielded a Post-administration latency period of 285.28 ± 56.32 s.

As to `OCCN1CCC(=C2c3ccc(Cl)cc3CCc3cccnc32)CC1` [Hydroxyethyl desloratadine, reference compound], in the series with histamine, the “Smooth muscle tone After administration” value was 1.41 ± 0.43 g. The Antispasmodic percentage in series [1] amounted to 58.53±10.79%. Further, in series [2], the “Solubility in Isopropanol” value is 21 mg/mL (≈ 59.2 mM), the “Solubility in Methanol” value turned out to be 27 mg/mL (≈ 76.1 mM) and the “Solubility in Water” value is on record as “Practically insoluble”. Also, in series [3], the “Smooth muscle tone After administration” value was determined as 1.33 ± 0.27 g and the Antispasmodic percentage is reported as 21.76±10.04%. The Post-administration latency period in series [4] was determined as 281.12 ± 54.82 s.

As to `O=C1Cc2ccccc2C(=C2CCN(CCCCCOP(=O)(O)O)CC2)c2ccsc21` [Compound III-5], in the series on histamine, the “Smooth muscle tone After administration” value was determined as 1.20 ± 0.21 g, the “Smooth muscle tone After addition of histamine” value is 3.43 ± 0.93 g and the “Smooth muscle tone Before administration” value came out at 1.73 ± 0.21 g. The Antispasmodic percentage in series [1] amounted to 65.01±18.17%. The “Solubility in Water” value in series [2] turned out to be 20 mg/mL (≈ 43.3 mM). Besides, in series [3], the “Smooth muscle tone After administration” value was found to be 1.13 ± 0.31 g and the “Smooth muscle tone Before administration” value amounted to 1.70 ± 0.20 g. This compound registered an Antispasmodic percentage in series [3] (5 min) of 33.53±19.21%. In series [4], the Post-administration latency period was 375.52 ± 49.26 s and the Pre-administration latency period amounted to 102.32 ± 54.23 s.

Regarding `Cc1cncc(CN2CCC(=C3c4ccccc4CC(=O)c4sccc43)CC2)c1` [Rupatifen, reference compound], the “Smooth muscle tone After administration” value with histamine was found to be 1.52 ± 0.46 g; in series [3], 1.31 ± 0.25 g. The figures for the Antispasmodic percentage in series [1] and in series [3] were 55.42±11.38% and 23.84±11.10%, respectively. For the same compound, the “Solubility in Water” value in series [2] was “Practically insoluble”. For the same compound, in series [4], the Post-administration latency period turned out to be 253.23 ± 52.29 s.

`O=C1Cc2ccccc2C(=C2CCN(CCCCOP(=O)(O)O)CC2)c2ccsc21` [Compound III-4]: in the series on histamine, the “Smooth muscle tone After administration” value was found to be 1.23 ± 0.24 g, the “Smooth muscle tone After addition of histamine” value came out at 3.44 ± 0.96 g and the “Smooth muscle tone Before administration” value came to 1.78 ± 0.17 g. Further, the Antispasmodic percentage in series [1] is 64.24±17.11%. In series [2], the “Solubility in Water” value came out at 20 mg/mL (≈ 44.7 mM). Moreover, in series [3], the “Smooth muscle tone After administration” value is 1.16 ± 0.23 g and the “Smooth muscle tone Before administration” value worked out at 1.72 ± 0.16 g. This compound also registered an Antispasmodic percentage in series [3] (5 min) of 32.55±18.33%. In series [4], the Post-administration latency period is 369.49 ± 51.06 s and the Pre-administration latency period amounted to 99.07 ± 50.25 s.

For the compound `O=C1Cc2ccccc2C(=C2CCN(CCOP(=O)(O)O)CC2)c2ccsc21` [Compound III-2], in the series on histamine, the “Smooth muscle tone After administration” value turned out to be 1.18 ± 0.21 g, the “Smooth muscle tone After addition of histamine” value amounted to 3.41 ± 0.89 g and the “Smooth muscle tone Before administration” value was 1.75 ± 0.18 g. This compound also returned an Antispasmodic percentage in series [1] of 65.39±17.28%. The “Solubility in Water” value in series [2] came to 20 mg/mL (≈ 47.7 mM). Besides, in series [3], the “Smooth muscle tone After administration” value came to 1.21 ± 0.24 g and the “Smooth muscle tone Before administration” value was determined as 1.70 ± 0.21 g. For the same compound, the Antispasmodic percentage in series [3] (5 min) amounted to 28.82±16.05%. In series [4], this compound registered a Post-administration latency period of 377.22 ± 50.87 s and a Pre-administration latency period of 99.48 ± 50.88 s.

In the case of `O=C1Cc2ccccc2C(=C2CCN(CCCOP(=O)(O)O)CC2)c2ccsc21` [Compound III-3], in series [5] (Month 0), the Content was found to be 99.7%. The Description result in series [5] (Month 0), in series [5] (Month 1), in series [5] (Month 2), in series [5] (Month 3) and in series [5] (Month 6) was “White powder” each time. Besides, the Related substances in series [5] (Month 0) is 0.03%; in series [5] (Month 1) it was 0.05%; in series [5] (Month 2), 0.10%; in series [5] (Month 3), 0.15%; in series [5] (Month 6), 0.34%. For the same compound, the remaining at 730 h in series [5] (storage 75% relative humidity, Month 1, read-out: Content) stood at 99.7%. For the same compound, the remaining at 1460 h in series [5] (storage 75% relative humidity, Month 2, read-out: Content) is 99.6%. Also, in series [5] (storage 75% relative humidity, Month 3, read-out: Content), the remaining at 2190 h came out at 99.5%. The remaining at 4380 h in series [5] (storage 75% relative humidity, Month 6, read-out: Content) came out at 99.2%. For the same compound, the Antispasmodic percentage came to 66.66±15.49% in series [1] and 30.23±17.82% in series [3] (5 min). In addition, in series [2], the “Solubility in Isopropanol” value was found to be 24 mg/mL (≈ 55.4 mM). Further, the “Solubility in Water” value in series [2] came to 20 mg/mL (≈ 46.1 mM). In series [4], this compound yielded a Post-administration latency period of 368.01 ± 50.67 s.

As for `OCCCCN1CCC(=C2c3ccc(Cl)cc3CCc3cccnc32)CC1` [Hydroxybutyl desloratadine, reference compound], the “Smooth muscle tone After administration” value with histamine stood at 1.45 ± 0.47 g. The compound also displayed an Antispasmodic percentage in series [1] of 57.77±13.69%. In addition, in series [2], the “Solubility in Isopropanol” value was determined as 28 mg/mL (≈ 73.1 mM), the “Solubility in Methanol” value turned out to be 22 mg/mL (≈ 57.5 mM) and the “Solubility in Water” value is recorded as “Practically insoluble”. In addition, in series [3], the “Smooth muscle tone After administration” value is 1.31 ± 0.28 g and the Antispasmodic percentage is on record as 24.27±12.31%. Besides, the Post-administration latency period in series [4] was 286.23 ± 55.29 s.

Take `OCCCCCN1CCC(=C2c3ccc(Cl)cc3CCc3cccnc32)CC1` [Hydroxypentyl desloratadine, reference compound]: the “Smooth muscle tone After administration” value with histamine turned out to be 1.44 ± 0.51 g. For the same compound, the Antispasmodic percentage in series [1] was determined as 57.48±12.05%. In series [2], the “Solubility in Isopropanol” value came to 29 mg/mL (≈ 73.1 mM), the “Solubility in Methanol” value came to 19 mg/mL (≈ 47.9 mM) and the “Solubility in Water” value was “Practically insoluble”. Moreover, in series [3], the “Smooth muscle tone After administration” value came to 1.28 ± 0.24 g and the Antispasmodic percentage is listed as 25.14±12.21%. The Post-administration latency period in series [4] was found to be 284.29 ± 57.34 s.

On to `O=C1Cc2ccccc2C(=C2CCN(CCCOP(=O)(O)O)CC2)c2ccsc21` [Compound IV-3], for which the Content in series [5] (Month 0) worked out at 99.7%; in series [5] (Month 1, 43800 min), 99.7%; in series [5] (Month 2, 87600 min) it was 99.6%; in series [5] (Month 3, 131400 min), 99.6%; in series [5] (Month 6, 262800 min), 99.4%. Also, the Description entry in series [5] (Month 0), in series [5] (Month 1), in series [5] (Month 2), in series [5] (Month 3) and in series [5] (Month 6) was “White powder” throughout. For the same compound, the Related substances is recorded as 0.03% in series [5] (Month 0); 0.05% in series [5] (Month 1); 0.09% in series [5] (Month 2); 0.12% in series [5] (Month 3); 0.25% in series [5] (Month 6). Moreover, the Antispasmodic percentage in series [1] is given as 64.91±18.92%; in series [3] (5 min) it was 30.95±19.69%. Also, the “Solubility in Isopropanol” value in series [2] was 1 mg/mL (≈ 2.31 mM). The Post-administration latency period in series [4] is 371.38 ± 49.10 s.
